Where two headings read alike, the source gives them in different places.
Assays:
[1] = set-up: method as in PMID 30262852; conditions: human ref 35; cited from earlier work
[2] = molecular target: SP_0916 (arginine decarboxylase, ADC) (Streptococcus pneumoniae, UniProt A0A0H2UPK4); assay: Inhibition of decarboxylase activities of recombinant SP_0916 (LC-MS); format: biochemical; conditions: 10 mM substrate, 15 min, 37 °C
Description: We determined the impact of DFMO (ODC/ADC inhibitor) and α-difluoromethylarginine (DFMA, an ADC inhibitor) on the decarboxylase activities of SP_0916. BL21(DE3) cells expressing recombinant His tag SP_0916 were lysed with B-PER reagent buffer (Thermo Fisher Scientific, Waltham, MA, USA), lysate separated by loading unto HisPur Cobalt Spin Column (Thermo Fisher Scientific, Waltham, MA, USA), desalted using Sephadex G-25 PD-10 column (GE Healthcare, Chicago, IL, USA), and protein concentration estimated using the Pierce BCA Protein Assay kit (Thermo Fisher Scientific, Waltham, MA, USA).
SP_0916-encoded protein (0.926 µmol L^−1) was mixed with 10 mM substrate (arginine, lysine or ornithine) in the reaction mixture (500 µL reaction volume, 50 mM Tris–HCl, pH 8.0) that contains 2.5 mM MgSO4 and 0.6 mM PLP. DFMO was diluted in water to 3–900 mM and added to the reaction mixture after 5 min preincubation at 37 °C in the dark. DFMA stock was made in a similar manner but was diluted in water to 0.3–1000 µM. The enzyme and inhibitor were incubated at 37 °C for 15 min in the dark and the reaction terminated with 0.3 M perchloric acid. After incubation on ice for 15 min, the samples were neutralized with 25 µL of 10 N KOH and extracted with 1 mL of 1-butanol. The organic layer was dried under nitrogen gas and reconstituted with 100 µL of water containing Spermidine-d8 and Glucose-d7 as an internal standard. Analysis of the extracts was performed on a Surveyor LC–MS system. 5 µL of reconstitution was injected to the LC–MS system for detection of the products (agmatine, cadaverine or putrescine). We used internal standards to normalize and determine the peak intensity (area ratio) for each metabolite detected. Enzyme activity without inhibitor is referred to as a control activity. All experiments were performed in triplicate. The concentration of inhibitor that inhibited 50% of the control activity (IC50 value) was determined by varying the concentration of the indicated DFMO or DFMA and measuring the decarboxylase activity. Sigma Plot v. 12 was used to fit the curve through the points and IC50 values were interpolated from the fitted curve.

[3] = system: S. pneumoniae serotype 2 (D39); assay: DFMO susceptibility and growth in THY (OD600, MIC); format: cell-based, Streptococcus pneumoniae; set-up: Growthrate: unit not given here; conditions: D39
Method: (§1) S. pneumoniae serotypes 4 (TIGR4), 2 (D39), 19F (EF3030) and 3 (WU2) were cultured in Todd Hewitt broth supplemented with yeast extract (THY). Supplementation with DFMO ranging from 1.1 to 549 mM was carried out in triplicate in a 96-well plate and incubated at 37 °C and 5% CO2 in a Cytation™ 5 cell imaging multi-mode reader (BioTek, Winooski, VT). The change in optical density at 600 nm (OD600) was measured every hour for 24 h and used to determine the minimum inhibitory concentration (MIC) of DFMO. The optical density data was analyzed using GrowthRates 4.0 software. To determine whether DFMO at sub-MIC is bacteriostatic or lethal to pneumococcal cells, all strains were cultured in the presence or absence of 1/2 MIC DFMO. OD600 was measured every hour and CFU were enumerated on a blood agar plate (BAP) every 2 h over an 8 h incubation period.

[4] = system: S. pneumoniae serotype 19F (EF3030); assay: DFMO susceptibility and growth in THY (OD600, MIC); format: cell-based, Streptococcus pneumoniae; set-up: Growthrate: unit not given here
Method: as §1

[5] = system: S. pneumoniae serotype 3 (WU2); assay: DFMO susceptibility and growth in THY (OD600, MIC); format: cell-based, Streptococcus pneumoniae; set-up: Growthrate: unit not given here
Method: as §1

SP_0916 (arginine decarboxylase, ADC), sequence (A0A0H2UPK4 entry or part of it): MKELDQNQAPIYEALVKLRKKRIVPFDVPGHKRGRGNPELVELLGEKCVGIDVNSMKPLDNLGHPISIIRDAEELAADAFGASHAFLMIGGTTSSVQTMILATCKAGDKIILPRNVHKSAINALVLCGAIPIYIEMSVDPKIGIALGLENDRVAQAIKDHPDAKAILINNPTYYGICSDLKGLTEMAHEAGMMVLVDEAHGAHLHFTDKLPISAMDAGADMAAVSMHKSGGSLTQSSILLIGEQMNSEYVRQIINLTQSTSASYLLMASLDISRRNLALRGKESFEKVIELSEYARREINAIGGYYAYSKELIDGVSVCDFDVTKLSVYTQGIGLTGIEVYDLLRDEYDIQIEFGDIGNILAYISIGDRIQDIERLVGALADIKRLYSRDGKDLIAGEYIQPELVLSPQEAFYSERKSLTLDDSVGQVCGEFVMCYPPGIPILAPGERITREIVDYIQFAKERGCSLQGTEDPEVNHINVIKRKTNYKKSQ

SMILES: NCCC[C@](N)(C(=O)O)C(F)F [DFMO, α-difluoromethylornithine]
- safe dosage for use in human [1]: around 1.0 g/m^2/day
- safe dosage for use in human, as concentration [1]: 1 to 2 mM
- IC50 ([2]; DFMO IC50, ornithine to putrescine): 26.6 ± 4.1 mM
- IC50 ([2]; arginine to agmatine, read-out: DFMO IC50): 75.1 ± 5.5 mM
- IC50 ([2]; lysine to cadaverine, read-out: DFMO IC50): 8.2 ± 0.2 mM
- difference in growth rate in presence or absence of DFMO (GrowthRates software) [3]: did not identify any significant differences
- growth curve versus control ([3]; 1/2 MIC DFMO (137 mM)): longer lag phase and a lower maximal O.D
- Growthrate ([3]; DFMO 0.2 µg/µL): 0.025
- Max OD ([3]; DFMO 0.2 µg/µL): 1.555
- Growthrate ([3]; DFMO 0.4 µg/µL): 0.019
- Max OD ([3]; DFMO 0.4 µg/µL): 1.573
- Growthrate ([3]; DFMO 0.8 µg/µL): 0.018
- Max OD ([3]; DFMO 0.8 µg/µL): 1.615
- Growthrate ([3]; DFMO 1.6 µg/µL): 0.040
- Max OD ([3]; DFMO 1.6 µg/µL): 1.648
- Growthrate ([3]; DFMO 3.1 µg/µL): 0.039
- Max OD ([3]; DFMO 3.1 µg/µL): 1.642
- Growthrate ([3]; DFMO 6.3 µg/µL): 0.037
- Max OD ([3]; DFMO 6.3 µg/µL): 1.647
- Growthrate ([3]; DFMO 12.5 µg/µL): 0.036
- Max OD ([3]; DFMO 12.5 µg/µL): 1.613
- Growthrate ([3]; DFMO 25.0 µg/µL): 0.029
- Max OD ([3]; DFMO 25.0 µg/µL): 0.985
- Growthrate ([3]; DFMO 50.0 µg/µL): 0.000
- Max OD ([3]; DFMO 50.0 µg/µL): 0.000
- Growthrate ([3]; DFMO 100.0 µg/µL): 0.000
- Max OD ([3]; DFMO 100.0 µg/µL): 0.000
- difference in growth rate in presence or absence of DFMO (GrowthRates software) [4]: did not identify any significant differences
- Growthrate ([4]; DFMO 0.2 µg/µL): 0.035
- Max OD ([4]; DFMO 0.2 µg/µL): 1.413
- Growthrate ([4]; DFMO 0.4 µg/µL): 0.021
- Max OD ([4]; DFMO 0.4 µg/µL): 1.458
- Growthrate ([4]; DFMO 0.8 µg/µL): 0.037
- Max OD ([4]; DFMO 0.8 µg/µL): 1.485
- Growthrate ([4]; DFMO 1.6 µg/µL): 0.037
- Max OD ([4]; DFMO 1.6 µg/µL): 1.495
- Growthrate ([4]; DFMO 3.1 µg/µL): 0.036
- Max OD ([4]; DFMO 3.1 µg/µL): 1.517
- Growthrate ([4]; DFMO 6.3 µg/µL): 0.035
- Max OD ([4]; DFMO 6.3 µg/µL): 1.538
- Growthrate ([4]; DFMO 12.5 µg/µL): 0.030
- Max OD ([4]; DFMO 12.5 µg/µL): 1.513
- Growthrate ([4]; DFMO 25.0 µg/µL): 0.040
- Max OD ([4]; DFMO 25.0 µg/µL): 1.319
- Growthrate ([4]; DFMO 50.0 µg/µL): 0.000
- Max OD ([4]; DFMO 50.0 µg/µL): 0.000
- Growthrate ([4]; DFMO 100.0 µg/µL): 0.000
- Max OD ([4]; DFMO 100.0 µg/µL): 0.000
- difference in growth rate in presence or absence of DFMO (GrowthRates software) [5]: did not identify any significant differences
- growth curve versus control ([5]; 1/2 MIC DFMO (137 mM)): longer lag phase and a lower maximal O.D
- Growthrate ([5]; DFMO 0.2 µg/µL): 0.046
- Max OD ([5]; DFMO 0.2 µg/µL): 0.497
- Growthrate ([5]; DFMO 0.4 µg/µL): 0.047
- Max OD ([5]; DFMO 0.4 µg/µL): 0.509
- Growthrate ([5]; DFMO 0.8 µg/µL): 0.047
- Max OD ([5]; DFMO 0.8 µg/µL): 0.548
- Growthrate ([5]; DFMO 1.6 µg/µL): 0.046
- Max OD ([5]; DFMO 1.6 µg/µL): 0.575
- Growthrate ([5]; DFMO 3.1 µg/µL): 0.050
- Max OD ([5]; DFMO 3.1 µg/µL): 0.650
- Growthrate ([5]; DFMO 6.3 µg/µL): 0.048
- Max OD ([5]; DFMO 6.3 µg/µL): 0.652
- Growthrate ([5]; DFMO 12.5 µg/µL): 0.048
- Max OD ([5]; DFMO 12.5 µg/µL): 0.696
- Growthrate ([5]; DFMO 25.0 µg/µL): 0.046
- Max OD ([5]; DFMO 25.0 µg/µL): 0.303
- Growthrate ([5]; DFMO 50.0 µg/µL): 0.000
- Growthrate ([5]; DFMO 100.0 µg/µL): 0.000

Source: PMC9276676, “Difluoromethylornithine (DFMO) and AMXT 1501 inhibit capsule biosynthesis in pneumococci” (Scientific Reports, 2022)
